Where “and” joins values, the source holds several entries; their conditions need not be identical. Equal entries are not always repeated.
How the values were obtained:
[1] = tested on: fire ants (Solenopsis invicta); assay: Treated filter paper knockdown (KD) and mortality trial (Example 4); assay type: in vivo; settings: Nootkatone 1% in ethanol on filter paper
Method: (§1) A laboratory trial was conducted to assess the efficacy of nootkatone applied to filter paper against aphids (Schizaphis gramium), dust mites (Dermatophagoides sp.), termites (Reticulitermes flavipes), deer ticks (Ixodes scapularis), biting midges (Culicoides sp.), fire ants (Solenopsis invicta), and mosquitoes (Aedes aegypti and Culex), in terms of knockdown (KD) and mortality. One concentration (1% in ethanol) of nootkatone was assessed for most species, but three concentrations (0.25%, 0.5%, and 1% in ethanol) were assessed for mosquitoes. A negative control group, consisting of filter paper treated with ethanol, was also assessed for comparison purposes for each species.
(§2) Test systems were introduced to treated filter paper, allowed to dry, and then introduced into treatment chamber, where treated arthropods were monitored at intervals up to 72 hours. If 100% mortality was obtained prior to 72 hours, the individual study was halted.
Fire ants—5 replicates of 10 insects were tested per treatment. A Petri dish lid 3.54 inches (9 cm) in diameter was inverted and serve as the substrate for a 2.75 inch (7 cm) treated filter paper circle. The small Petri dish bottom was inverted over the paper and had its sides treated with Fluon® to prevent climbing and force exposure with the filter paper. The entire Petri dish was enclosed with two rubber bands.
(§3) Readings were discontinued if treated mortality reaches […], or control mortality exceeds 20%.

[2] = tested on: mosquitoes (Aedes aegypti and Culex); assay: Treated filter paper knockdown (KD) and mortality trial (Example 4), statements on both mosquito species; assay type: in vivo
Method: as §1, §2
Midges and mosquitoes—5 replicates of 10 insects per treatment were tested. Inverted 10 ounce (295 ml) clear plastic cups with a 0.5 inch (1.27 cm) hole burned into the center of the bottom, and with the sides coated with Fluon® was used at the treatment containers. The bottoms of the containers consisted of Petri dish lids 3.54 inches (9.0 cm) in diameter lined with a treated filter paper circle the same diameter. The cup was placed over the filter paper in the lid and both were secured in place using 2 rubber bands. The insects were introduced through the hole in the cup, and a plastic disc was placed over the opening to prevent escapes.
as §3

[3] = tested on: deer ticks (Ixodes scapularis); assay: Treated filter paper knockdown (KD) and mortality trial (Example 4); assay type: in vivo; settings: Nootkatone 1% in ethanol on filter paper
Method: as §1, §2
(§4) Deer Ticks and Dust mites—5 replicates of 10 ticks or 35 dust mites were tested per treatment. Envelopes made from treated 2.5 inch (6.35 cm) filter paper squares served as the containers. After the ticks or dust mites were placed inside the envelopes, and the openings were sealed using small binder clips.
as §3

[4] = tested on: dust mites (Dermatophagoides sp.); assay: as above; assay type: in vivo; settings: Nootkatone 1% in ethanol on filter paper
Method: as §1, §2, §4, §3

[5] = tested on: bed bugs (Cimex lectularius); assay: Filter paper choice test of repelling action (Example 6); assay type: in vivo
Method: An in vitro laboratory trial was required to assess the repelling action of nootkatone applied to filter paper against cat fleas (Ctenocephalides felis), deer ticks (Ixodes scapularis), bed bugs (Cimex lectularius), and termites (Reticulitermes flavipes) in a choice test design.
The sponsor provided a sample of nootkatone (98%), which was diluted in ethanol to a 0.5% concentration. The treatment was applied to filter paper at a rate of 1 mL for a 9 cm filter paper disc, and a rate of 1.9 mL for a 15 cm filter paper disc. A negative control group, consisting of untreated filter paper, was also assessed for comparison purposes.
Bed bugs: Petri dishes (9 cm) were modified by cutting a circular hole in the bottom of a clean petri plate. Fine mesh nylon cloth was fastened to the bottom using adhesive, covering the hole. The petri plate was then inverted, with the screened bottom serving as the top. Treated and untreated filter papers were cut in half and fitted into the new bottom of the test containers. Treated replicates received one half treated and one half untreated filter paper; negative control replicates received only untreated filter paper.
Bed bugs: Bed bugs were placed in the center of each test container and covered with the fine-mesh lid. The containers were kept in darkness at ambient laboratory conditions for 24 hours. At the end of the exposure period, the distribution (on or under each filter paper) of bed bugs was recorded.
The number of insects in each location was converted to a percentage, for which the average and standard error were calculated across all five replicates.
Percent repellency was calculated with the following formula: % repellency=(1−((t/T)/(c/C)))*100 • Where t=number of insects on treated side of treated arena • T=total number of insects in treated arena • c=average number of insects on right side of untreated arenas • C=average total number of insects in untreated arenas

[6] = tested on: aphids (Schizaphis gramium); assay: Treated filter paper knockdown (KD) and mortality trial (Example 4); assay type: in vivo; settings: Nootkatone 1% in ethanol on filter paper
Method: as §1, §2, §3

Ae. aegypti mosquitoes = assay: Continuous exposure to treated filter paper, knockdown and mortality (Example 3); assay type: in vivo, Aedes aegypti; settings: 1% nootkatone in ethanol on filter paper
Method: In the following example, the effectiveness of a 1% nootkatone composition in killing Ae. aegypti mosquitoes was determined.
A composition of 1% nootkatone formulated in ethanol was added to filter paper, which was then introduced into a Fluon®-coated container. Ten Ae. aegypti mosquitoes were added to the container and observed at 30 min, 1, 4, and 24 hr. Five replicates were performed. […] An untreated population was observed as a negative control.

[7] = 0.5% nootkatone in ethanol, 24 Hours post introduction, Replicates 1-5

Compound: C=C(C)[C@@H]1CCC2=CC(=O)C[C@@H](C)[C@]2(C)C1 [Nootkatone, nootkatone]
- Time required for greater than 90% killing [1]: 24 h
- Means Affected ([1]; 30 minutes post introduction): 0.0%
- Means Dead ([1]; 30 minutes post introduction): 0.0%
- Means KD ([1]; 30 minutes post introduction): 0.0%
- Means Affected ([1]; 1 hour post introduction): 0.0%
- Means Dead ([1]; 1 hour post introduction): 0.0%
- Means KD ([1]; 1 hour post introduction): 0.0%
- Means Affected ([1]; 4 hours post introduction): 22.0%
- Means Dead ([1]; 4 hours post introduction): 0.0%
- Means KD ([1]; 4 hours post introduction): 22.0%
- Means Affected ([1]; 24 hours post introduction): 100.0%
- Means Dead ([1]; 24 hours post introduction): 100%
- Means KD ([1]; 24 hours post introduction): 0.0%
- Means Dead ([1]; 24 hours post introduction, listed as nootkatone): 100%
- Mortality in mosquitoes ([2]; Nootkatone 0.25% in ethanol on filter paper, the lowest tested concentration): less than 80%
- Time required for greater than 90% killing ([2]; Nootkatone 1% in ethanol on filter paper): 24 h
- Affected (knockdown+mortality) mosquitoes in both species ([2]; Nootkatone 1% in ethanol on filter paper, by 8 hours post treatment): at least 80%
- Mortality in mosquitoes during the experimental duration ([2]; Nootkatone at 1% concentration in ethanol on filter paper, both mosquito species): 94-100%
- Mortality in both mosquito species ([2]; nootkatone 0.5% in ethanol on filter paper, by 72 hours post treatment): 82-95%
- Time required for greater than 90% killing [3]: 72 h
- Means Affected ([3]; 24 hours post introduction): 100.0%
- Means Dead ([3]; 24 hours post introduction): 36.0%
- Means KD ([3]; 24 hours post introduction): 62.0%
- Means Affected ([3]; 48 hours post introduction): 100.0%
- Means Dead ([3]; 48 hours post introduction): 82.0%
- Means KD ([3]; 48 hours post introduction): 16.0%
- Means Affected ([3]; 72 hours post introduction): 100.0%
- Means Dead ([3]; 72 hours post introduction): 100% and 98%
- Means KD ([3]; 72 hours post introduction): 0.0%
- Time required for greater than 90% killing [4]: 72 h
- Means Affected ([4]; 72 hours post introduction): 100.0%
- Means Dead ([4]; 72 hours post introduction): 100%
- Means KD ([4]; 72 hours post introduction): 0.0%
- Repellency (conclusion in words) ([5]; 0.5% nootkatone in ethanol on filter paper): highly repellent
- Raw data: number of bed bugs on Treated half of treated arena, per replicate [5, 7]: 0 (4×) and 1
- Raw data: number of bed bugs on Untreated half of treated arena, per replicate [5, 7]: 10 (4×) and 9
- Calculated percent repellency (average ± SE) ([5]; nootkatone (98%) 0.5% in ethanol on filter paper, half treated, half untreated arena, 24 hours): 93.9 ± 6.1%
- Time required for greater than 90% killing [6]: 30 min
- Means Affected ([6]; 30 minutes post introduction): 100.0%
- Means Dead ([6]; 30 minutes post introduction): 100% and 94.0%
- Means KD ([6]; 30 minutes post introduction): 6.0%
- Knockdown rate after 1 hr relative to 30 min (Ae. aegypti mosquitoes; after 1 hr): more than doubled
- Knockdown rate (Ae. aegypti mosquitoes; after 4 hr): greater than 90%
- Exposure time after which mosquitoes begin to be affected (Ae. aegypti mosquitoes; continuous exposure): 30 min
- Exposure time at which knockdown was complete (FIG. 5) (Ae. aegypti mosquitoes; continuous exposure): < 24 h
- Average percent of mosquitoes affected (FIG. 3) (Ae. aegypti mosquitoes; continuous exposure 24 hr): All mosquitoes were affected

From US11800867B2, “Methods of repelling biting arthropods, reducing pathogen spread and treating arthropod infestation” (priority 2016, dated 2023)
